Source: ChEMBL document CHEMBL5584330, “Small Molecular Inhibitors That Target ATM for Drug Discovery: Current Research and Potential Prospective” (J Med Chem, 2024)

Columns and labels:
[1] = Inhibition of PI3K (unknown origin); set-up: species or system Homo sapiens
[2] = target: Phosphatidylinositol 4,5-bisphosphate 3-kinase catalytic subunit alpha isoform (Homo sapiens, UniProt P42336); assay: Inhibition of PI3K alpha (unknown origin)
U2OS [3] = assay: Cytotoxicity against human U2OS cells assessed as reduction in cell viability incubated for 48 hrs by MTT assay; type: functional, cell-based
SW480 = assay: Antiproliferative activity against human SW480 cells assessed as reduction in cell viability incubated for 72 hrs by MTT assay; type: functional, cell-based; details: SW480, 72 h
[4] = Half life in human liver microsomes; type: ADME, Microsome
MCF7 = assay: cells; details: Homo sapiens
Description: Antiproliferative activity against human MCF7 cells assessed as reduction in cell growth

[5] = target: T1, Serine-protein kinase ATM (Homo sapiens, UniProt Q13315); assay: Inhibition of ATM (unknown origin)
T1 sequence (Q13315 whole entry): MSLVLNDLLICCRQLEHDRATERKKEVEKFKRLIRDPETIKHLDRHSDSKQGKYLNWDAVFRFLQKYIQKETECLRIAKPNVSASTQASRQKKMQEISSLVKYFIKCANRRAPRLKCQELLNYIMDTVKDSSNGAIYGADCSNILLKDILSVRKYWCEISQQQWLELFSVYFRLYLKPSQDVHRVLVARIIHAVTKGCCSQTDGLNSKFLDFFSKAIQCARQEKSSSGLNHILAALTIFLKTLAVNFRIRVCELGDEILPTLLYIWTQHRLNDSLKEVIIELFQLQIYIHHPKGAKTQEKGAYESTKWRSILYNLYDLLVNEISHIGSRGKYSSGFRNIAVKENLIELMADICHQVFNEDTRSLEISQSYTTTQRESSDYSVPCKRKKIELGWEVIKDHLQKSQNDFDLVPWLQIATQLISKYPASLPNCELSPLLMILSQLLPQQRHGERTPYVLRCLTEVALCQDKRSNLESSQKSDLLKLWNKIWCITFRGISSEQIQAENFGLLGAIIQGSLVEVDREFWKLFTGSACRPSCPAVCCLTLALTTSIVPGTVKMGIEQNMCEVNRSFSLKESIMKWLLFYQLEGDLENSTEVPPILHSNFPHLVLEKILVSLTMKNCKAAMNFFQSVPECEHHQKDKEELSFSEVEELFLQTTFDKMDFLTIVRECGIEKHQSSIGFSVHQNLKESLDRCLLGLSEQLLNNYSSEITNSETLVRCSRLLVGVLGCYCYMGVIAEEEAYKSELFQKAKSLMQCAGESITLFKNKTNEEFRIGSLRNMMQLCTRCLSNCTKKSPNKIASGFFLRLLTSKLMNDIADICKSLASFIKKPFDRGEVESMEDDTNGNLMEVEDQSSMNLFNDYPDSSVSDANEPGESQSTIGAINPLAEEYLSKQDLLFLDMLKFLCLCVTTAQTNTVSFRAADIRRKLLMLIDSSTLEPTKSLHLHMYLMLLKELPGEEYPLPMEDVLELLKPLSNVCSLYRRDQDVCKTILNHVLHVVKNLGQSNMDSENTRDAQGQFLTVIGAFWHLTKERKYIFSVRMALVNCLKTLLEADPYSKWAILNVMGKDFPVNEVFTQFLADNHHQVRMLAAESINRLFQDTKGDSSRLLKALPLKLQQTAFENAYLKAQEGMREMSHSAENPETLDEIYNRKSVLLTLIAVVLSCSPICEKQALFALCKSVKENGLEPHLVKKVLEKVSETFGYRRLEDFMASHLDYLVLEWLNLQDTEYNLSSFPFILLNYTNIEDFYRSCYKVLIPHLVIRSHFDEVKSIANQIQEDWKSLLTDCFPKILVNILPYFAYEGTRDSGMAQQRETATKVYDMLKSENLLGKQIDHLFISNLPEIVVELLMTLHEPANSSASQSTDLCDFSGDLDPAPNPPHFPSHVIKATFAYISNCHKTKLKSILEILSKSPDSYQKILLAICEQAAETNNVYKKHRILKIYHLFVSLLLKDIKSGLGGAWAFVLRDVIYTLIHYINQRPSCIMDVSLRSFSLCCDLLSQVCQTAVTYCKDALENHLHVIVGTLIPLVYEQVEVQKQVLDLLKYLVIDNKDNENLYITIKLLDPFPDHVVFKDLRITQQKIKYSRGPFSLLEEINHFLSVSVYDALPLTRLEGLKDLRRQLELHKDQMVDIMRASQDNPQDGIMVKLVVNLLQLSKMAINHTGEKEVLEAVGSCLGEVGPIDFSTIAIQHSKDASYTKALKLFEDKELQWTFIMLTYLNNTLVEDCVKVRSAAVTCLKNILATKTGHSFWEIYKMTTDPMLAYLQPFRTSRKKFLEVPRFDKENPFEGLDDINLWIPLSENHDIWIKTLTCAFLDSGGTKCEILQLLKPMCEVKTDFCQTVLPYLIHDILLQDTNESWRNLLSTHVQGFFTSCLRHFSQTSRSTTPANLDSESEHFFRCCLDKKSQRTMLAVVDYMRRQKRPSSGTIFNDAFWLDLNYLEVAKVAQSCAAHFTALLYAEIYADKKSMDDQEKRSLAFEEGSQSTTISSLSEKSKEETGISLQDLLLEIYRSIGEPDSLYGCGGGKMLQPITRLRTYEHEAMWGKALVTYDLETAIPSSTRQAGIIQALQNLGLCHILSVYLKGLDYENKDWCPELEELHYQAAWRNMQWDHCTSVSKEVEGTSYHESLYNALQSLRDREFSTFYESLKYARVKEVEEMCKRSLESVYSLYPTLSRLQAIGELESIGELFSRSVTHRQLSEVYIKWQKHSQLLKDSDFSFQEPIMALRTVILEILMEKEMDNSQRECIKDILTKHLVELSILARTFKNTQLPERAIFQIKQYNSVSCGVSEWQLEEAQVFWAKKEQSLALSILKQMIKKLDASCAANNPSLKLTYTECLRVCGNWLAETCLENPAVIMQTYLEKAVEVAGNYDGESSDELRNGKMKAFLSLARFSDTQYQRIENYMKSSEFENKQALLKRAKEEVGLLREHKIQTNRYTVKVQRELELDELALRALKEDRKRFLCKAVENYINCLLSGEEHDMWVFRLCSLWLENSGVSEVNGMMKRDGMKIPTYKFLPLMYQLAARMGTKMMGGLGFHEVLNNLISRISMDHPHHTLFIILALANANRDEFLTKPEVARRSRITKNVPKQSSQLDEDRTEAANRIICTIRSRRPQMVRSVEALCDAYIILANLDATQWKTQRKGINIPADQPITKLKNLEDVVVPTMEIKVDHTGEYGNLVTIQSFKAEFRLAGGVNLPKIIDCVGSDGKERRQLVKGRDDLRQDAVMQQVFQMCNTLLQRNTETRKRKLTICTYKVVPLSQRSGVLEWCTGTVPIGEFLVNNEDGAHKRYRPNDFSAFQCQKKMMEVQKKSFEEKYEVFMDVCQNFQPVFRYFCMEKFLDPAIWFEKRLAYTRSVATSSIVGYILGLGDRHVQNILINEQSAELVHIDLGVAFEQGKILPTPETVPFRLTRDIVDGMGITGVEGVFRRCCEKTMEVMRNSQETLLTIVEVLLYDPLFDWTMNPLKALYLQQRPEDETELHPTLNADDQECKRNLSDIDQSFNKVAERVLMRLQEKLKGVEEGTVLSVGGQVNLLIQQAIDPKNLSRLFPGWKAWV

[6] = target: Serine/threonine-protein kinase mTOR (Homo sapiens, UniProt P42345); assay: Inhibition of mTOR (unknown origin)
[7] = target: T1, Serine-protein kinase ATM; assay: Binding affinity to ATM (unknown origin) assessed as inhibition constant
[8] = target: Phosphatidylinositol 3-kinase catalytic subunit type 3 (Homo sapiens, UniProt Q8NEB9); assay: Binding affinity to Vps34 (unknown origin) assessed as inhibition constant
Sequence of Phosphatidylinositol 3-kinase catalytic subunit type 3 (Q8NEB9 whole entry): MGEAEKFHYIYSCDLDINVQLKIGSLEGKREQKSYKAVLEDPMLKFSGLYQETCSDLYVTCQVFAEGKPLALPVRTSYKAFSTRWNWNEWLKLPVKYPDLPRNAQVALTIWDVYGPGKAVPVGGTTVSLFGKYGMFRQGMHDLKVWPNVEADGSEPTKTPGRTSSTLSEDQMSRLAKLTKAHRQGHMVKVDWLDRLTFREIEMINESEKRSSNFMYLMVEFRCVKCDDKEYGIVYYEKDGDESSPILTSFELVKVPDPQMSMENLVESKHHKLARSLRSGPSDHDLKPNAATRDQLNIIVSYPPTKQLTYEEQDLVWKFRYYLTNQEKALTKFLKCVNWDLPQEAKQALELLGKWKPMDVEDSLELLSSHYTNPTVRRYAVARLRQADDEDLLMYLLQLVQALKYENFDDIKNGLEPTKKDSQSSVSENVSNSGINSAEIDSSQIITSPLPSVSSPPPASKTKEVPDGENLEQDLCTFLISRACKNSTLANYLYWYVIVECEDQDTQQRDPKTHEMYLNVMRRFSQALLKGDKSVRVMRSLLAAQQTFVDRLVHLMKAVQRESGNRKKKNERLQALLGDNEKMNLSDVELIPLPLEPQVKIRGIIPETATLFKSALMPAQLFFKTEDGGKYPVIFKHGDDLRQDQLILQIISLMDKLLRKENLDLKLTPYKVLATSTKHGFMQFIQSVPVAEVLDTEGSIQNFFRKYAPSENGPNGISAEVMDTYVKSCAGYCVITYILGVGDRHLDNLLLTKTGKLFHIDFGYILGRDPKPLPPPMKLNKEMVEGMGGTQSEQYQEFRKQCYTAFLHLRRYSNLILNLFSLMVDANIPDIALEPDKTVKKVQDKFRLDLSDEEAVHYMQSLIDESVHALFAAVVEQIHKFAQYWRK

U2OS [9] = assay: cells; details: Homo sapiens

Sequence of Phosphatidylinositol 4,5-bisphosphate 3-kinase catalytic subunit alpha isoform (P42336 whole entry, canonical isoform): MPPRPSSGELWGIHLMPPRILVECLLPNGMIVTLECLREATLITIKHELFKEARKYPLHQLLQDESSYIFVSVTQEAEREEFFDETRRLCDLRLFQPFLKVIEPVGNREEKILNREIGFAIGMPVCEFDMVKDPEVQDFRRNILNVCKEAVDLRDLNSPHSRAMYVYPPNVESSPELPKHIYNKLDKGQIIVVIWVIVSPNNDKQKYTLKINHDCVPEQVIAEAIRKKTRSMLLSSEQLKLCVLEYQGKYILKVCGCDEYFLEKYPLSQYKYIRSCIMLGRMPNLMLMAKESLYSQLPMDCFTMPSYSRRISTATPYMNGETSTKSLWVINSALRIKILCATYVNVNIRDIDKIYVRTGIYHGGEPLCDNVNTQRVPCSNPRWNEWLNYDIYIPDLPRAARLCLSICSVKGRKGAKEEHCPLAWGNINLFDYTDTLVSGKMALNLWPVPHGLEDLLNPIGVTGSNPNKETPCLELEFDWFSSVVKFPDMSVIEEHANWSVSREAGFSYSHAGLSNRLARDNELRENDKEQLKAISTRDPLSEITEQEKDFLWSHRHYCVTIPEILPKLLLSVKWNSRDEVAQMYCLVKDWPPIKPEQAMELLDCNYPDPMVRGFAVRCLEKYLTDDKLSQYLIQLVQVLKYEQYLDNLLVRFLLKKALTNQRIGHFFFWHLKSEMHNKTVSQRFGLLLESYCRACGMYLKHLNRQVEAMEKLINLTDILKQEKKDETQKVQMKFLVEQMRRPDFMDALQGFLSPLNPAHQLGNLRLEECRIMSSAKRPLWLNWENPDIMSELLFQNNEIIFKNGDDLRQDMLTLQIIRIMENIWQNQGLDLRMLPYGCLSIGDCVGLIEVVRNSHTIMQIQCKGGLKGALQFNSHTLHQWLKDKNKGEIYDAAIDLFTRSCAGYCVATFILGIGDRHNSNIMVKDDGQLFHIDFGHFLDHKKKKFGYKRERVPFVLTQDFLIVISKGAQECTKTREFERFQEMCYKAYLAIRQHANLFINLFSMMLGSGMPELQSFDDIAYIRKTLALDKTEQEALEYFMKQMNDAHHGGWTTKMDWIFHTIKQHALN

Row | Structure (SMILES) | Ki [7] | Ki [8] | IC50 (U2OS [9]) | further results
1 | C[C@@H]1CN(CC(=O)Nc2ccc3c(c2)Cc2cccc(-c4cc(=O)cc(N5CCOCC5)o4)c2S3)C[C@H](C)O1 |  |  |  | IC50 [1]: 6 nM
2 | CN1CCN(CCC(=O)Nc2ccc3c(c2)Sc2cccc(-c4cc(=O)cc(N5CCOCC5)o4)c2S3)CC1 |  |  |  | IC50 [2]: 3 nM
3 | COc1ccc2c(c1)Cc1cccc(-c3cc(=O)cc(N4CCOCC4)o3)c1S2 |  |  |  | IC50 [2]: 5 nM; IC50 (U2OS [3]): 910 nM
4 | CNC(=O)c1ccc(-c2cnc3cnc(-c4ccccc4)cn23)cc1 |  |  |  | IC50 (SW480): 6200 nM
5 | CC(C)NC(=O)N(C)c1cnc2ccc(-c3ccc(OCCCN4CCCCC4)nc3)cc2n1 |  |  |  | half-life [4]: 12.8 h
6 | COCCOc1cc2c(-n3cc(-c4ccccn4)nc3N)ncnc2cc1OC |  |  |  | IC50 (MCF7): 1200 nM
7 | COc1cc2ncnc(-n3cc(-c4ccccn4)nc3N)c2cc1OC |  |  |  | IC50 (MCF7): 370 nM
8 | C=C1C(=O)OCC1C(=O)N1Cc2cc3ccccc3nc2C1 (configuration not stated) |  |  |  | IC50 [5]: 600 nM; IC50 [6]: 7000 nM
9 | C[C@H]1CCN(c2nc(N3CCOCC3)cc(=O)[nH]2)[C@@H]1Cc1ccccc1 | 0.4 nM | 6 nM | 90 nM | 
10 | O=c1cc(N2CCOCC2)cc(N2CCCCC[C@H]2Cc2ccccc2)[nH]1 | 1 nM | 50 nM | 230 nM | 

Now from value to molecule, other results behind:

Row | Ki [7] | Ki [8] | IC50 (U2OS [9]) | Structure (SMILES) | further results
11 | 2 nM | 90 nM | 300 nM | O=c1cc(N2CCOCC2)cc(N2C[C@@H]3C[C@@H]3[C@H]2Cc2ccccc2)[nH]1 | 
12 | 6 nM | 9 nM | 3400 nM | O=c1cc(N2CCOCC2)cc(N2CC3CC3[C@H]2Cc2ccccc2)[nH]1 (some centres not stated) | 
